Experiments:
[1] = system: watermelon seeds; experiment: Germination of treated watermelon seeds; settings: 0.05% SDS alone (negative control)
[2] = system: Clavibacter michiganenses subsp. michiganenses (CMM); settings: 0.5% levulinic acid, 30° C., 30 hr, OD 600 nm
Procedure: (§1) The effect of levulinic acid on in vitro growth of a range of phytobacteria was determined using a Microbiology Reader BioscreenC (Transgalactic Ltd.; Helsinki, Finland) according to manufacturer's instructions. Briefly, inoculum was generated by transferring one colony of each bacterium from a three-day-old nutrient agar culture (Difco) to 5 ml of nutrient broth. Broth cultures were incubated overnight at 30° C. with continuous agitation and cells from 1 ml of broth were harvested by centrifugation (16,200×g) for 3 min and adjusted to about 3.0×10^8 CFU/ml (ODA600 nm=0.3) spectrophotometrically (Spectronic 20, Bausch and Lomb, Rochester, N.Y.). Cell suspensions were ten-fold serially diluted to desired concentrations, and 10 μl of each suspension was transferred to a single well in a honeycomb plate (Oy Growth Curves AB Ltd., Helsinki, Finland) containing 190 μl of nutrient broth amended with 3%, 1% or 0.5% levulinic acid. This yielded a starting suspension of about 1.5×10^4 CFU/ml. The microplate containing ten replicates of each bacterium×levulinic acid concentration treatment was incubated at 30° C. with continuous agitation in a BioscreenC MBR incubator/reader. Optical density measurements of each well were taken at a wavelength of 600 nm at 30 min intervals for 30 hr.

[3] = system: Pantoea ananatis (PNA)
Procedure: (§2) The ability of combinations of levulinic acid and SDS to kill a range of plant pathogenic bacteria in vitro was tested. Nutrient broth liquid cultures were supplemented with 3%, 1%, or 0.5% levulinic acid. A range of gram-negative plant pathogenic bacteria was screened, including Acidovorax avenae subsp. citrulli, Erwinia (Pectobacterium) carotovora subsp. carotovora, Xanthomonas campestris pv. campestris, Xanthomonas axonopodis pv. vesicatoria and Pantoea ananatis subsp. ananatis. […] Each bacterium was evaluated 10 times and the experiment was repeated.
as §1

[4] = system: Xanthomonas campestris pv. vesicatoria (XCV)
Procedure: as §2, §1

[5] = system: Acidovorax avenae subsp. citrulli (Aac)
Procedure: as §2, §1

[6] = system: Erwinia carotovora subsp. carotovora (ECC)
Procedure: as §2, §1

[7] = system: Xanthomonas campestris pv. campestris (XCC)
Procedure: as §2, §1

[8] = 0.5% levulinic acid, 30° C., 30 hr, OD 600 nm

SMILES	Germination percentage [1] [%]	In vitro growth in nutrient broth [2]	Kind of action (broth cultures plated after incubation) [3]	Number of viable cells in the liquid broth ([3]; 0.5% levulinic acid)	In vitro growth in nutrient broth [3, 8]	Kind of action (broth cultures plated after incubation) [4]	Number of viable cells in the liquid broth ([4]; 0.5% levulinic acid)	In vitro growth in nutrient broth [4, 8]	Kind of action (broth cultures plated after incubation) [5]	Number of viable cells in the liquid broth ([5]; 0.5% levulinic acid)	In vitro growth in nutrient broth [5, 8]	Kind of action (broth cultures plated after incubation) [6]	Number of viable cells in the liquid broth ([6]; 0.5% levulinic acid)	In vitro growth in nutrient broth [6, 8]	Kind of action (broth cultures plated after incubation) [7]	Number of viable cells in the liquid broth ([7]; 0.5% levulinic acid)	In vitro growth in nutrient broth [7, 8]
CCCCCCCCCCCCOS(=O)(=O)[O-].[Na+] [0.05% SDS, sodium dodecyl sulfate]	89.25	–	–	–	–	–	–	–	–	–	–	–	–	–	–	–	–
CC(=O)CCC(=O)O [levulinic acid, Levulinic acid]	–	prevented the growth	bactericidal rather than bacteristatic	killed the pathogens	prevented the growth	bactericidal rather than bacteristatic	killed the pathogens	prevented the growth	bactericidal rather than bacteristatic	killed the pathogens	prevented the growth	bactericidal rather than bacteristatic	killed the pathogens	prevented the growth	bactericidal rather than bacteristatic	killed the pathogens	prevented the growth

From patent publication US20130005811A1, “ANTIMICROBIAL TREATMENT FOR SEEDS AND SPROUTS” (priority 2010, published 2013)
